Results as given in patent US6914072B2, “Cannabinoid drugs” (Indevus Pharmaceuticals, Inc., priority 2000, dated 2005).

How the values were obtained:
C6 glioma cells [1] = experiment: Co-incubation of C6 glioma cells with a CB1 antagonist; format: cell-based; conditions: 3.2 μM of a specific CB1 antagonist
From the text: (§1) Cell proliferation assays. […] 5:69-84, 1995.
First, the compound's inhibition of cell proliferation was not reversible with a CB1 antagonist.

C6 glioma cells [2] = experiment: MTT cell proliferation assay, C6 glioma cells; format: cell-based
Method: as §1
(§2) The proliferation of a number of human cell lines derived from a variety of cancer types (brain, breast, bladder, lung, and prostate) was tested for sensitivity to 25 μM of each agent for 48 hours.

U87 = experiment: 48 hour MTT assay, U87 (brain); format: cell-based, human; conditions: 25 μM
Method: as §1, §2

U373 = experiment: 48 hour MTT assay, U373 (brain); format: cell-based, human; conditions: 25 μM
Method: as §1, §2

U118 = experiment: 48 hour MTT assay, U118 (brain); format: cell-based, human; conditions: 25 μM
Method: as §1, §2

A172 = experiment: 48 hour MTT assay, A172 (brain); format: cell-based, human; conditions: 25 μM
Method: as §1, §2

HS578T = experiment: 48 hour MTT assay, HS578T (breast); format: cell-based, human; conditions: 25 μM
Method: as §1, §2

HT1376 = experiment: 48 hour MTT assay, HT1376 (bladder); format: cell-based, human; conditions: 25 μM
Method: as §1, §2

J82 = experiment: 48 hour MTT assay, J82 (bladder); format: cell-based, human; conditions: 25 μM
Method: as §1, §2

Calu6 = experiment: 48 hour MTT assay, Calu6 (lung); format: cell-based, human; conditions: 25 μM
Method: as §1, §2

Du145 = experiment: 48 hour MTT assay, Du145 (prostate); format: cell-based, human; conditions: 25 μM
Method: as §1, §2

PC3 = experiment: 48 hour MTT assay, PC3 (prostate); format: cell-based, human; conditions: 25 μM
Method: as §1, §2

[3] = tested on: human cell lines derived from a variety of cancer types (brain, breast, bladder, lung, and prostate); experiment: 48 hour MTT assay, panel of ten human cancer cell lines (mean); format: cell-based; conditions: 25 μM; for Inhibition level (mean±SD) over the human cancer cell lines: 48 hours, mean±SD of ten lines
Method: as §1, §2

C6 glioma cells [4] = experiment: Flow cytometry/cell cycle analysis; format: cell-based; conditions: 25 μM, two days in 10% serum after synchronization; control 4.4 ± 0.3
Method: Flow cytometry/cell cycle analysis. For flow cytometry, cells were grown in low serum (0.5%) for two days to synchronize cells in G0/G1, after which they were placed in high serum (10%) for two days. The cells were then labeled with propidium iodide and fixed in 4% paraformaldehyde. Cells were examined using a MoFlo Facs sorter for DNA content.
(§3) In order to investigate this effect further, the effect of ajulemic acid on cell cycle kinetics was assessed. C6 glioma cells were incubated for 24 hours in media containing 0.5% serum to synchronize them in G1/G0. The cells were then exposed to media containing 10% serum either with or without 25 μM ajulemic acid for two days.

C6 cells [5] = experiment: Cell morphology (phase and electron microscopy), C6 cells; format: cell-based
Method: as §3
Third, another distinctive feature of ajulemic acid's antitumor effect was the appearance of retractile bodies that could be easily visualized with phase microscopy. Both the number of cells that had refractile bodies as well as the number of refractile bodies/cell increased over time. After 48 hours, 83% of ajulemic acid-treated C6 cells had one or more refractile bodies compared to 27% to THC-treated cells (p<0.001, Chi-square analysis). The mean number of refractile bodies per cell was also much higher for ajulemic acid-treated cells compared to THC-treated cells (1.78±1.6 vs. 0.22±0.5 per cell, p<0.001, t-test).
To further explore the nature of the cell enlargement and refractile bodies, cells were examined under electron microscopy. […] In fact, these cells appeared metabolically active. […] Moreover, ajulemic acid-treated cells were enlarged and contained large lipid droplets, the identity of which was confirmed by […].

WI38 cells = experiment: Refractile bodies by phase microscopy, WI38 cells; format: cell-based, rat; conditions: same length of time and dosage (48 hours)
C6 cells [6] = experiment: Viability by trypan blue exclusion; format: cell-based; conditions: ajulemic acid-treated cells
C6 cells [7] = experiment: Lipid incorporation assay (14C-arachidonic acid); format: cell-based; conditions: 25 μM, 48 hours
PKC activity in C6 cells = experiment: Protein kinase C (PKC) assay; format: cell-based; conditions: 25 μM
Method: Protein kiniase C (PKC) assay. Cells were transferred into MEM media (0.5% serum) and cultured overnight. The next day, cells were treated with either DMSO or 25 μM ajulemic acid for the specified incubation time, after which the plates were trypsinized. 5×10^6 trypsinized cells were assayed for PKC activity using a kit (Calbiochem, cat. no. 53984).
Because diacyl glycerol (DAG) is an important signal transducer of protein kinase C, the effect of ajulemic acid treatment on the PKC activity in C6 cells was examined. […] At least two alternative explanations for this observation exist: (1) the PKC isozymes that were stimulated were those with slow growth, such as PKCδ; and (2) the increased DAG was modulating some other downstream mediator, such as β-chimaerin, to a greater extent such that the balance is towards anti-proliferation.

[8] = tested on: human glioma cell line U87; experiment: In vivo subcutaneous U87 nude mouse tumor model; design: species or system male nu/nu BALBc mice; conditions: 0.1 mg/kg thrice weekly, FIG. 4
Method: In vivo subcutaneous model. 10^6 U87 cells were injected into the right […] of male nu/nu BALBc mice (Charles River). Two days after inoculation, the mice received either 0.1 mg/kg ajulemic acid in 0.05 ml of safflower oil, or 0.05 ml safflower oil by oral administration. Thereafter, identical dosings were performed on each Monday, Wednesday, and Friday. When visible tumors appeared, the size of the tumors were estimated by averaging the values of two roughly perpendicular diameters measurements. Visible tumors were measured on the days of drug administration.
Whether ajulemic acid has in vivo antitumor activity was determined using a nude mouse tumor model. The growth of the human glioma cell line U87 injected subcutaneously in nude mice was assessed with and without ajulemic acid administration. For these experiments, ajulemic acid treatment was initiated two days after inoculation of 10^6 tumor cells in the mice. […] At day 25 post-inoculation, 5 of 5 control mice had tumors with a mean diameter of 16.3±3.2 mm, while the mean diameter in the treated group was 3.8±8.5 mm (n=5, p-0.015, t-test).

[9] = tested on: normal fibroblast cell line WI38; experiment: MTT cell proliferation assay, WI38 cells; conditions: 25 μM, two days, three different experiments
[10] = Stereospecificity of the proliferation effect (D-isomer vs L-isomer); format: cell-based; conditions: 25 μM dose, p<0.001, FIG. 2
From the text: as §1
To assess whether ajulemic acid's effect was receptor-mediated, a preparation 95% enriched in the D-isomer of ajulemic acid was used to examine the stereospecificity of the effect observed above.

SMILES	Percent inhibition of human cancer cell line growth in 48 hour MTT assay (U87)	Percent inhibition of human cancer cell line growth in 48 hour MTT assay (U373)	Percent inhibition of human cancer cell line growth in 48 hour MTT assay (U118)	Percent inhibition of human cancer cell line growth in 48 hour MTT assay (A172)	Percent inhibition of human cancer cell line growth in 48 hour MTT assay (HS578T)	Percent inhibition of human cancer cell line growth in 48 hour MTT assay (HT1376)	Percent inhibition of human cancer cell line growth in 48 hour MTT assay (J82)	Percent inhibition of human cancer cell line growth in 48 hour MTT assay (Calu6)	Percent inhibition of human cancer cell line growth in 48 hour MTT assay (Du145)	Percent inhibition of human cancer cell line growth in 48 hour MTT assay (PC3)	Inhibition level (mean±SD) over the human cancer cell lines [3]	further results
CCCCCc1cc(O)c2c(c1)OC(C)(C)[C@@H]1CCC(C)=C[C@@H]21 [Δ^9-THC, tetrahydrocannabinol, reference compound]	–	–	–	–	–	–	–	–	–	–	–	Decrease in potency on co-incubation with CB1 antagonist (C6 glioma cells [1]): 150%
CCCCCCC(C)(C)c1cc(O)c2c(c1)OC(C)(C)[C@@H]1CC=C(C(=O)O)C[C@@H]21 [ajulemic acid, 1′,1′-dimethylheptyl-Δ^8-THC11-oic acid]	54 ± 2%	34 ± 1%	60 ± 2%	76 ± 1%	60 ± 2%	60 ± 2%	57 ± 3%	69 ± 3%	74 ± 2%	69 ± 2%	61.3 ±12.1%	Inhibition of C6 cell proliferation (C6 glioma cells [2]; 25 μM, two days, three different experiments): 65%; IC50 (C6 glioma cells [2]; C6 glioma cells, FIG. 1, read-out: IC50, inhibition of C6 glioma cells (MTT assay)): 55 µM; Effectiveness compared to THC in the ten lines ([3]; p<0.05, in six of the ten lines tested): significantly more effective; Change of effect on co-incubation with CB1 antagonist (in words) (C6 glioma cells [1]): slight potentiation; S (mean % ± SD) (C6 glioma cells [4]): 13.0%; Appearance of treated cells under electron microscopy (C6 cells [5]): neither apoptotic nor necrotic; Refractile bodies (in words), WI38 cells (WI38 cells): no retractile bodies were noted; Viability rate by trypan blue exclusion (C6 cells [6]): > 95%; Content of tri- and di-glyceride relative to controls (C6 cells [7]): over three-fold greater than in controls; Neutral lipids (14C-arachidonic acid incorporation) versus basal levels (C6 cells [7]; p<0.05 Dunnett's test, FIG. 3): significant increase above basal levels; Onset of PKC activity increase (PKC activity in C6 cells): increased within five minutes; PKC activity relative to control (PKC activity in C6 cells; for one hour): approximately two-fold above that of control; Tumor appearance and size (in words) [8]: A delay in both the appearance and size of tumors; Inhibition of WI38 cell proliferation [9]: 44%
CCCCCc1cc(O)c2c(c1)OC(C)(C)[C@@H]1CC=C(C(=O)O)C[C@@H]21 [THC-11-oic acid, reference compound]	5 ± 1%	0%	14 ± 3%	61 ± 2%	2 ± 1%	21 ± 12%	3 ± 1%	19 ± 5%	7 ± 3%	1 ± 1%	13.1±18.5%	Refractile bodies (in words), C6 glioma cells (C6 cells [5]; 25 μM, 48 hours): no retractile bodies were noted
CCCCCCC(C)(C)c1cc(O)c2c(c1)OC(C)(C)[C@@H]1CC=C(C(=O)O)C[C@@H]21 (single isomer, unassigned) [D-isomer of ajulemic acid]	–	–	–	–	–	–	–	–	–	–	–	Potency of D-isomer compared to L-isomer of ajulemic acid [10]: marked decrease in the potency
